According to US6414024B1, “GABA and L-glutamic acid analogs for antiseizure treatment” (Northwestern University, priority 1990, dated 2002):
Where two headings read alike, the source gives them in different places.

Assays:
[1] = tested on: tonic hindlimb extensor seizures in mice; test: Threshold maximal (low-intensity) electroshock, tonic extensor seizures; type: in vivo; details: for ED50: IV, mouse, 17 mA
Description: Threshold maximum electroshock is an animal model test for generalized seizures that is similar to that of Piredda S G, et al, Pharmacol. and Exptl. Therap. […] The methods for this test are described as follows.
Male CF-1 mice (22-30 g) were allowed free access to food and water prior to testing. For screening, groups of five mice were given a compound intravenously at doses of 30, 100, and 300 mg/kg and tested at 0.5, 2.0, and 4.0 hours after dosing. Drugs were either dissolved in 0.9% saline or suspended in 0.2% methylcellulose. Animals were shocked with corneal electrodes (see below) and observed for tonic hindlimb extensor seizures. Absence of hindlimb extension was taken as an anticonvulsant effect.
The electroshock apparatus delivered a 60 Hz sine wave with a current amplitude of 14 mA (peak-to-peak) for 0.2 seconds.
(§1) For anticonvulsant testing, male CF-1 strain mice (20-25 g) and male Sprague-Dawley rats (75-115 g) were obtained from Charles River Laboratories and were maintained with free access to food and water before testing. […] Briefly, mice were given test substance and were tested for prevention of seizures by application of electrical current to the corneas by 2 metal electrodes covered with gauze and saturated with 0.9% sodium chloride. Electroshock stimulation was delivered by a constant-current device that produced 60 Hz sinusoidal electrical current for 0.2 seconds. For rats, maximal electroshock stimulation consisted of 120 mA of current. […] Any mouse that fell from the wire mesh during a 60 second test period was rated as ataxic.

[2] = Ataxia in mice (inverted screen procedure); details: male, CF-1, in vivo, mouse
Description: as §1

Gabapentin Receptor = target: T1, Gabapentin Receptor (Rattus norvegicus, UniProt P54290); test: Gabapentin receptor binding, displacement of [3H]-gabapentin
T1 construct: partially purified synaptic plasma membranes were prepared from rat neocortex; from tissue; host or cells: rat neocortex synaptic plasma membranes
T1 sequence (P54290 25-1091): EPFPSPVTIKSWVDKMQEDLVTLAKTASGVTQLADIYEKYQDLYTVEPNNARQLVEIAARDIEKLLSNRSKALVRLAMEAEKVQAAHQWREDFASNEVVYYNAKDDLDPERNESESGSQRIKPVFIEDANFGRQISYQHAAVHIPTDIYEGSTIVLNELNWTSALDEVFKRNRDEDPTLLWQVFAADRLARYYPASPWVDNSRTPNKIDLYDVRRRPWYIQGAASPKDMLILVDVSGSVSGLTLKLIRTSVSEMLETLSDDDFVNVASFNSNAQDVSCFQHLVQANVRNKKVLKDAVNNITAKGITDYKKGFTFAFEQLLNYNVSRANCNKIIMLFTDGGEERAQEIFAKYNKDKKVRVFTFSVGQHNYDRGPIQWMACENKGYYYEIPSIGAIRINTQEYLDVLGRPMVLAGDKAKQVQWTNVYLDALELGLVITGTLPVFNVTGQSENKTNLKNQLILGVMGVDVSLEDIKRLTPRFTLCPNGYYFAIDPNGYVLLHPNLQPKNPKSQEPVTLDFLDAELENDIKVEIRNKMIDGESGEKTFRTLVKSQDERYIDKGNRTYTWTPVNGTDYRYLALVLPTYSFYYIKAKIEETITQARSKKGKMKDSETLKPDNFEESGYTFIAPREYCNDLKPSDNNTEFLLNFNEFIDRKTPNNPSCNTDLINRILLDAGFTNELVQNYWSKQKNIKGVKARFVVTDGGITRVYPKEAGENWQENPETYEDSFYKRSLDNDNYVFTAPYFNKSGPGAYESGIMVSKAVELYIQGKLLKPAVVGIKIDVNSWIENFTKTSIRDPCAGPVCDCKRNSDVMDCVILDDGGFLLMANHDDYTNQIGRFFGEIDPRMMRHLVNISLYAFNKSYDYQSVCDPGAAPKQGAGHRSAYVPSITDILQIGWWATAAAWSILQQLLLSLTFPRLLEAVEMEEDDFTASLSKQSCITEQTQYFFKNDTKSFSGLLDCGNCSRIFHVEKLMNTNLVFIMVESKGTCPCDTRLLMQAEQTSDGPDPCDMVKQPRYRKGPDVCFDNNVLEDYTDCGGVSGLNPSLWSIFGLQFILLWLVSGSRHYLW
Description: For binding studies, partially purified synaptic plasma membranes were prepared from rat neocortex using sucrose density gradients. The cerebral cortex of 10 rats was dissected from the rest of the brain and homogenized in 10 volumes (weight/volume) of ice-cold 0.32 M sucrose in 5 mM tris-acetate (pH 7.4) using a glass homogenizer fitted with a teflon pestle (10-15 strokes at 200 rpm). The homogenate was centrifuged at 100 g for 10 minutes and the supernatant collected and kept on ice. The pellet (PI) was rehomogenized in 20 mL of tris-sucrose and the homogenate recentrifuged. The combined supernatants were centrifuged at 21,500 g for 20 minutes. The pellet (P2) was resuspended in 1.2 M tris-sucrose and 15 mL of this mixture was added to ultracentrifuge tubes. On to this, 10 mL of 0.9 M sucrose was layered followed by a final layer of 5 mM tris-acetate, pH 8.0. Tubes were centrifuged at 100,000 g for 90 minutes. The synaptic plasma membranes located at the 0.9/1.2 M sucrose interface. were collected, resuspended in 50 mL of 5 mM tris-acetate, pH 7.4, and centrifuged at 48,000 g. The final pellet was resuspended in 50 mL of tris-acetate, pH 7.4, aliquoted, and then frozen until use.
The assay tissue (0.1 to 0.3 mg protein) was incubated with […] [^3H]-gabapentin in 10 mM HEPES buffer (pH 7.4 at 20° C., sodium free) in the presence of varying concentrations of test compound for 30 minutes at room temperature, before filtering onto GFB filters under vacuum. Filters were washed 3 times with 5 mL of ice cold 100 mM NaCl solution and dpm bound to filters was determined using liquid scintillation counting. Nonspecific binding was defined by that observed in the presence of […] gabapentin.

[3] = tested on: maximal electroshock seizures in mice; test: Maximal electroshock in mice; type: in vivo; details: mouse
Description: For anticonvulsant testing, male CF-1 strain mice (20-25 g) and male Sprague-Dawley rats (75-115 g) were obtained from Charles River Laboratories and were maintained with free access to food and water before testing. Maximal electroshock was delivered with corneal electrodes by conventional methods (Krall, supra, 1975) except that low-intensity electroshock with mice consisted of 17 mA of current rather than the conventional 50 mA (zero to peak). Briefly, mice were given test substance and were tested for prevention of seizures by application of electrical current to the corneas by 2 metal electrodes covered with gauze and saturated with 0.9% sodium chloride. Electroshock stimulation was delivered by a constant-current device that produced 60 Hz sinusoidal electrical current for 0.2 seconds. For rats, maximal electroshock stimulation consisted of 120 mA of current. Ataxia in mice was assessed by the inverted screen procedure in which mice were individually placed on a 4.0-inch square of wire mesh that was subsequently inverted (Coughenour, supra, 1978). Any mouse that fell from the wire mesh during a 60 second test period was rated as ataxic.
All drugs were freely soluble in aqueous media. For in vivo studies, drug solutions were made in 0.9% sodium chloride and given in a volume of 1 mL/100 g body weight. Intravenous administration was given by bolus injection into the retro-orbital sinus in mice. Oral administrations were by intragastric gavage.

[4] = IV, read-out: IV Mouse Ataxia (ED50)
[5] = IV, read-out: IV Mouse Maximal Electroshock (ED50)
[6] = PO, read-out: PO Mouse Maximal Electroshock (ED50)

Row | SMILES | ED50 [1] [mg/kg] | ED50 [2, 4] [mg/kg] | IC50 (Gabapentin Receptor) [nM] | ED50 [3, 5] [mg/kg] | ED50 [3, 6] [mg/kg] | ED50 ([2]; (IP), read-out: Mouse Ataxia (ED50)) [mg/kg] | time of maximum protection, threshold maximal electroshock ([1]; mice, 10 mg/kg intravenously, tested 1 hour to 8 hours) [h] | # Protected, threshold maximal electroshock ([1]; mice, 10 mg/kg intravenously, time of testing 1 hr.) | # Protected, threshold maximal electroshock ([1]; mice, 10 mg/kg intravenously, time of testing 2 hr.) | # Protected, threshold maximal electroshock ([1]; mice, 10 mg/kg intravenously, time of testing 4 hr.) | # Protected, threshold maximal electroshock ([1]; mice, 10 mg/kg intravenously, time of testing 8 hr.) | calculated EDSO, threshold maximal electroshock dose response ([1]; mice, intravenously, two hour testing time) [mg/kg]
1 | CC(C)C[C@@H](CN)CC(=O)O [(R)-IBG, (R)(−)-4-amino-3-(2-methylpropyl)butanoic acid] | > 100 | > 100 | 860 | > 100 |  |  |  |  |  |  |  | 
2 | CC(C)C[C@H](CN)CC(=O)O [(S)-IBG, (S)-(+)-4-Amino-3-(2-methylpropyl)butanoic Acid] | 4 | > 300 | 44 | 18 | 12 |  |  |  |  |  |  | 
3 | NCC1(CC(=O)O)CCCCC1 [Gabapentin, gabapentin, reference compound] | 4.3 |  |  | 75 | 200 | > 100 |  |  |  |  |  | 
4 | CC(C)CC(CN)CC(=O)O (racemic) [(R,S)-i-C4H9, H, 4-amino-3-(2-methylpropyl)butanoic acid] | 4.8 | > 100 | 100 | 10 | 47 |  | 2 | 2/10 | 8/10 | 4/10 | 2/10 | 2.07
